In test [1] the test system is C57BL/6 mice. As to the kind of experiment: Change in muscle type (slow-twitch myosin staining of plantaris muscle). The test is classed as in vivo, mouse. Particulars: 200 mg/kg oral once a day, 8 weeks. How it is done:
5-week-old male C57BL/6 mice were grouped with 10 mice per group to evaluate change in muscle type after administration of test substances. The experimental mice were orally administered with Gynostemma pentaphyllum leaf extract, Artemisia princeps extract, astragali radix extract or EPA alone, a mixture of Artemisia princeps extract, Gynostemma pentaphyllum leaf extract and astragali radix extract or a mixture of EPA, Gynostemma pentaphyllum leaf extract and astragali radix extract (200 mg/kg) as test substances for 8 weeks, once a day. The mice were fasted for 12 hours before autopsy. Plantaris muscle was taken from the mice of each test group and frozen in liquid nitrogen. The frozen tissue was sliced to 10-μm thickness using a cryotome, fixed in acetone for 10 minutes, and washed 3 times with PBS. After blocking for 2 hours with PBS containing 10% FBS, the tissue sections were treated with anti-slow-twitch myosin antibody (Abcam, Cambridge, UK) as primary antibody and with fluorescein isothiocyanate (FITC)-conjugated anti-mouse IgG antibody (Molecular Probes) as secondary antibody. After mounting with antifade solution, the sections were examined by confocal microscopy.

Test [2] has as its system C57BL/6 mice. In words: Blood analysis (blood sugar, serum triglyceride and cholesterol). To be noted: 200 mg/kg oral once a day, 8 weeks. Type of test: in vivo, mouse. How it is done:
5-week-old male C57BL/6 mice were grouped with 10 mice per group. They were orally administered with Gynostemma pentaphyllum leaf extract, Artemisia princeps extract, astragali radix extract or EPA alone, a mixture of Artemisia princeps extract, Gynostemma pentaphyllum leaf extract and astragali radix extract or a mixture of EPA, Gynostemma pentaphyllum leaf extract and astragali radix extract (200 mg/kg) as test substances for 8 weeks, once a day. Then, blood analysis was performed to evaluate blood sugar level and serum triglyceride and cholesterol levels. The blood sugar level was measured using the Accu-Check Active kit (Roche Diagnostics, Seoul, Korea). The blood sample was centrifuged at 3000 rpm for 10 minutes to separate serum. Triglyceride and cholesterol levels in the separated serum were analyzed using the […] analyzer (Vital Scientific, […], The Netherlands).

With `CC/C=C\C/C=C\C/C=C\C/C=C\C/C=C\CCCC(=O)O` [EPA, eicosapentaenoic acid], in the test with C57BL/6 mice [1], the “Fast-twitch muscle (%)” value is given as 70.6 ± 3.6% and the “Slow-twitch muscle (%)” value is on record as 29.4 ± 4.2%. In the test on C57BL/6 mice [2], this compound came in with a Blood sugar of 181.2 ± 10.9 mg/dL. In the test with C57BL/6 mice [2] (serum), this compound yielded a Cholesterol of 164.9 ± 12.1 mg/dL and a Triglyceride of 101.23 ± 11.3 mg/dL.

The values are drawn from patent US9084785B2, “Composition for accelerating change in muscle type” (AMOREPACIFIC CORPORATION, priority 2010, dated 2015).
